Experimental data: PMC12295927, “Design, Synthesis, and Testing of 1,2,3-Triazolo-Quinobenzothiazine Hybrids for Cytotoxic and Immunomodulatory Activity” (International Journal of Molecular Sciences, 2025)
Read-outs that look alike come from different tables or passages of the source.

What was measured:
[1] = system: IL6 gene; test: RT-qPCR IL6 gene expression in BEAS-2B; assay type: cell-based, Human; conditions: Homo sapiens, 24 h, reference gene RPL41, vs untreated control, read-out: Relative level of expression, IL6 gene
Description: (§1) Real-time polymerase chain reaction was performed for the reference gene RPL41 (ribosomal protein L41) and the tested genes: BCL2, AIFM2, MDM2, IL6 and IL8. […] The BEAS-2B line was selected for the experiment. The expression level of selected genes was measured after 24 h of incubation with the tested substances MJ1–MJ20 at a concentration of 100 μM (Table 3).
(§2) The RT-qPCR experiment was performed for the BEAS-2B cell line. In this experiment, the IL6 and IL8 genes were studied and RPL41 was used as a reference gene (Figure 17 and Figure 18).
(§3) Gene expression studies used quantitative RT-qPCR to assess the effect of the tested quinobenzothiazines (MJ1–MJ20) on the expression of apoptosis-related genes (BCL2, AIFM2, MDM2) and pro-inflammatory cytokines (IL6, IL8) (Table 4).
(§4) BEAS-2B and HCT116 cells were seeded in 6-well plates at 2 × 10^5 cells per well and cultured in RPMI-1640 (BEAS-2B) or DMEM (HCT116) medium supplemented with 10% FBS and 1% penicillin/streptomycin at 37 °C, 5% CO2 and 95% humidity. After 24 h of incubation, the tested compounds were added at a concentration of 100 µM. After 24 h, the medium was removed from the cells, washed with PBS solution, 0.5 mL of trypsin was added per well and after 5 min it was neutralized with medium. The obtained cell suspension was centrifuged for 3 min at 2000 rpm, the supernatant was removed, and the obtained pellet was suspended in 400 µL of phenozol. Samples were frozen at −20 °C and stored until further experiment and RNA isolation.
(§5) Total RNA was isolated from cells using the A&A Biotechnology Total RNA Mini kit according to the manufacturer’s protocol. RNA quality and quantity were assessed using a NanoDrop 2000 spectrophotometer at 260/280 nm. Reverse transcription was performed using the protocol (EURx NG dART RT Kit) to obtain cDNA. After incubation, samples were placed in a freezer (−20 °C) and stored until further analysis.
(§6) The experiment was performed according to the protocol (Brilliant III Ultra Fast SYBR® Green QPCR Master Mix, Quick Reference Guide for the Bio-Rad CFX96 Real-Time PCR Detection System). RT-qPCR reaction was performed using specific primers for target genes (BCL2, AIFM2, MDM2, IL6, IL8). Gene expression was normalized to the expression of the reference gene RPL41. Reaction profiles and results were performed using Bio-Rad CFX Maestro 1.1 software from Bio-Rad. Analysis and calculations of the results obtained during RT-qPCR were performed using Microsoft Excel.
(§7) The results were analyzed using the R = 2^−ΔΔCt method, which allows for determining the relative level of gene expression (R) compared to the control. Each experiment was performed in three technical and biological replicates. RT-qPCR allowed for precise assessment of changes in the expression of genes related to the processes of apoptosis and inflammatory response under the influence of quinobenzothiazines, which allowed for identifying their potential mechanisms of action at the molecular level.

[2] = system: BEAS-2B; test: Alamar Blue cytotoxicity test, BEAS-2B; assay type: cell-based, Human; conditions: 24 h incubation, read-out: IC50 values for BEAS-2B line
Description: The cytotoxicity of the tested chemical compounds MJ1–MJ20 was tested using the Alamar Blue test. The experiment was conducted on cell lines BEAS-2B (Figure 7), HCT116 (Figure 8), U2OS (Figure 9), MCF7 (Figure 10), SH-SY5Y (Figure 11), NHDF (Figure 12), and A549 (Figure 13). Cells were seeded in 96-well plates and incubated with the tested compounds for 24 h. The test result is the IC50 parameter, which is a measure of cytotoxic activity expressed by the concentration of the substance that causes the death of half of the analyzed cells compared to the control.
In cytotoxicity studies, the Alamar Blue test was used, which is based on the ability of living cells to reduce the non-fluorescent dye resazurin to fluorescent resorufin, which reflects the metabolic activity of cells. BEAS-2B, NHDF, HCT116, MCF7, A549, SH-SY5Y and U2OS cell lines were cultured under standard conditions, in DMEM medium supplemented with 10% FBS and 1% penicillin/streptomycin, at 37 °C, 5% CO2 and 95% humidity. Cells were seeded in 96-well plates at 1 × 10^4 cells per well and incubated for 24 h. Then, the tested compounds (MJ1–MJ20) were added at different concentrations (from 6.25 µM to 100 µM). The control contained cells untreated with the tested compounds. After 24 h of incubation, 10 µL of Alamar Blue solution was added to each well and incubated for another 2–4 h under the same conditions. The signal was measured spectrophotometrically at wavelengths of 570 nm (for resorufin) and 600 nm (for resazurin) or optionally fluorimetrically, using an excitation maximum of 570 nm and an emission maximum of 585 nm. The results were presented as percentage of cell survival relative to the control, calculating the ratio of absorbance or fluorescence of the sample to the control value. The Alamar Blue assay, due to its sensitivity and non-toxicity, allows for an accurate assessment of metabolic activity and cell survival in response to the tested quinobenzothiazines.

[3] = system: MDM2 gene; test: RT-qPCR MDM2 gene expression in BEAS-2B; assay type: cell-based, Human; conditions: Homo sapiens, 24 h, reference gene RPL41, vs untreated control, read-out: Relative level of expression, MDM2 gene
Description: as §1
The RT-qPCR experiment was performed for the BEAS-2B cell line. In this experiment, the MDM2 gene was studied and RPL41 was used as reference gene (Figure 15).
as §3, §4, §5, §6, §7

[4] = system: AIFM2 gene; test: RT-qPCR AIFM2 gene expression in BEAS-2B; assay type: cell-based, Human; conditions: Homo sapiens, 24 h, reference gene RPL41, vs untreated control, read-out: Relative level of expression, AIFM2 gene
Description: as §1
The RT-qPCR experiment was performed for the BEAS-2B cell line. In this experiment, the AIFM2 gene was studied and RPL41 was used as reference gene (Figure 16).
as §3, §4, §5, §6, §7

[5] = system: BCL2 gene; test: RT-qPCR BCL2 gene expression in BEAS-2B; assay type: cell-based, Human; conditions: Homo sapiens, 24 h, reference gene RPL41, vs untreated control, read-out: Relative level of expression, BCL2 gene
Description: as §1
The RT-qPCR experiment was performed for the BEAS-2B cell line. In this experiment, the BCL2 gene was studied, and RPL41 was used as the reference gene (Figure 14).
as §3, §4, §5, §6, §7

[6] = system: IL8 gene; test: RT-qPCR IL8 gene expression in BEAS-2B; assay type: cell-based; conditions: Homo sapiens, 24 h, reference gene RPL41, vs untreated control, read-out: Relative level of expression, IL8 gene
Description: as §1, §2, §3, §4, §5, §6, §7

SMILES: Fc1ccc(Cn2cc(CN3c4ccc(Cl)cc4Sc4cc5ccccc5nc43)nn2)cc1 [MJ12, 9-Chloro-6-((1-(4-fluorobenzyl)-1H-1,2,3-triazol-4-yl)methyl)-quino[3,2-b]benzo-[1,4]thiazine]
- fold induction at 100 µM [1]: 6.2
- IC50 [2]: 75.6 µM
- IC50 ([2]; Homo sapiens, 24 h): 75.6 µM
- fold induction at 100 µM [3]: 3.8
- fold induction at 100 µM [4]: 0.6
- fold induction at 100 µM [5]: 25.9
- fold induction at 100 µM [6]: 4.9

SMILES: Clc1ccc(Cn2cc(CN3c4ccccc4Sc4cc5ccccc5nc43)nn2)cc1 [MJ3, 6-[(1-(4-Chlorobenzyl)-1H-1,2,3-triazol-4-yl)methyl]-quino[3,2-b]benzo[1,4]thiazine]
- fold induction at 100 µM [1]: 1.3
- IC50 ([2]; Homo sapiens, 24 h): 75.4 µM
- fold induction at 100 µM [3]: 5.9
- fold induction at 100 µM [4]: 1.3
- fold induction at 100 µM [5]: 5.7
- fold induction at 100 µM [6]: 0.3

SMILES: Fc1ccc(Cn2cc(CN3c4ccc(F)cc4Sc4cc5ccccc5nc43)nn2)cc1 [MJ7, 9-Fluoro-6-((1-(4-fluorobenzyl)-1H-1,2,3-triazol-4-yl)methyl)-quino[3,2-b]benzo[1,4]thiazine]
- fold induction at 100 µM [1]: 3.5
- IC50 ([2]; Homo sapiens, 24 h): 73.6 µM
- fold induction at 100 µM [3]: 4.6
- fold induction at 100 µM [4]: 3.3
- fold induction at 100 µM [5]: 7.5
- fold induction at 100 µM [6]: 2.6

SMILES: N#Cc1ccc(Cn2cc(CN3c4ccc(F)cc4Sc4cc5ccccc5nc43)nn2)cc1 [MJ9, 4-((4-((9-Fluoroquino [3,2-b]benzo[1,4]thiazin-6-yl)methyl)-1H-1,2,3-triazol-1-yl)methyl)-benzonitrile]
- fold induction at 100 µM [1]: 4.3
- IC50 ([2]; Homo sapiens, 24 h): 73 µM
- fold induction at 100 µM [3]: 5.6
- fold induction at 100 µM [4]: 4.5
- fold induction at 100 µM [5]: 9.8
- fold induction at 100 µM [6]: 0.9

SMILES: CSc1ccc2c(c1)Sc1cc3ccccc3nc1N2Cc1cn(Cc2ccc(Cl)cc2)nn1 [MJ18, 9-Methylthio-6-[(1-(4-chlorobenzyl)-1H-1,2,3-triazol-4-yl)methyl]-quino[3,2-b]-benzo[1,4]thiazine]
- fold induction at 100 µM [1]: 20.5
- IC50 ([2]; Homo sapiens, 24 h): 74.1 µM
- fold induction at 100 µM [3]: 7.1
- fold induction at 100 µM [4]: 1.7
- fold induction at 100 µM [5]: 41.5
- fold induction at 100 µM [6]: 4

SMILES: Fc1ccc2c(c1)Sc1cc3ccccc3nc1N2Cc1cn(CSc2ccccc2)nn1 [MJ10, 9-Fluoro-6-((1-((phenylthio)methyl)-1H-1,2,3-triazol-4-yl)methyl)-quino[3,2-b]-benzo[1,4]thiazine]
- fold induction at 100 µM [1]: 5.6
- IC50 ([2]; Homo sapiens, 24 h): 72.3 µM
- fold induction at 100 µM [3]: 3.6
- fold induction at 100 µM [4]: 3.1
- fold induction at 100 µM [5]: 10.6
- fold induction at 100 µM [6]: 5.7

SMILES: Clc1ccc(Cn2cc(CN3c4ccc(Cl)cc4Sc4cc5ccccc5nc43)nn2)cc1 [MJ13, 9-Chloro-6-[(1-(4-chlorobenzyl)-1H-1,2,3-triazol-4-yl)methyl]-quino[3,2-b]benzo-[1,4]thiazine]
- fold induction at 100 µM [1]: 6.5
- IC50 ([2]; Homo sapiens, 24 h): 85.2 µM
- fold induction at 100 µM [3]: 2.3
- fold induction at 100 µM [4]: 0.3
- fold induction at 100 µM [5]: 23.4
- fold induction at 100 µM [6]: 1.7
